Here are results for 2 compounds from article PMC7246848, “Comparative Cerebroprotective Potential of D- and L-Carnosine Following Ischemic Stroke in Mice” (International Journal of Molecular Sciences, 2020).

Structures are written as SMILES. Read-outs that look alike come from different tables or passages of the source.

On the set-up of series [1]: method as in PMID 19301317. The note with it: cited from earlier work.
On the set-up of series [2]: method as in PMID 19301317. As to conditions: cited from earlier work. This is another data set of the same source.
Series [3] is classed as in vivo. As to conditions: mice, doses up to 1000 mg/kg.
Series [4] concerns rat cortical neurons. Kind of series: NMDA excitotoxicity assay, LDH release. As to conditions: NMDA 30 µM. The format is cell-based. As for the experimental part: (§1) Primary cortical neurons were prepared from embryonic day 16 C57bl/6J mouse pups or embryonic day 18 Wistar rat pups. Briefly, cerebral cortices were physically and chemically dissociated with 0.25% trypsin-EDTA (Gibco, Waltham, MA, USA) in dissociation medium (HBSS) at 37 °C for 15 min followed by trituration. The dissociated cells were checked under a microscope for single cells and plated out on poly-L-lysine (Sigma-Aldrich) -coated, 24-well plates (187,500 cells/well) for the excitotoxicity assays, and 96-well plates (47,000 cells/well) for the oxidative stress assays. Neuronal cultures were maintained in B27 neurobasal medium with Glutamax and pen-strep (Gibco) in a 5% CO2 incubator at 37 °C, and cells were used at 11–14 days in vitro for experiments.
(§2) Neurons were pretreated with L- or D-carnosine for 24 h prior to NMDA stimulation (30 µM) for 30 min. Post-NMDA stimulation, the cells were washed and incubated back in the original medium in the presence or absence of L- and D-carnosine. Wells were washed and the B27-neurobasal medium was replaced in the presence or absence of L- or D-carnosine. Cytotoxicity was measured after 24 h using the Pierce cytotoxicity lactate dehydrogenase (LDH) assay kit. Cell viability was measured by 3-[4–Dimethylthiazol-2-yl]-2,5-diphenyltetrazolium bromide (MTT) assay, which reflects cell metabolism. After NMDA removal, the cells were evaluated for cell viability after 24 h with the addition of fresh media containing each drug. MTT (Sigma Aldrich; final 5 mg/mL) was added to each well and the cells were incubated for 2 h at 37 °C in the dark. Insoluble formazan was dissolved by the addition of 100 μL of DMSO and the absorbance (570 nm) was measured using a multimode plate reader (EnSpire, PerkinElmer, Waltham, MA, USA).

The test system of series [5] is mouse cortical neurons. In words: NMDA excitotoxicity assay, LDH release. The format is cell-based. As to conditions: NMDA 30 µM. As for the experimental part: as §1, §2
(LDH leaks from cells whose membrane has failed.)

The subject of series [6] is primary mouse neurons. In words: Oxidative stress assay: ROS accumulation (DCF fluorescence) after B27 withdrawal. The format is cell-based. As to conditions: 24 h B27 withdrawal. As for the experimental part:
as §1
Cytosolic oxidative stress was determined using dichlorofluorescein (DCF) fluorescence. Primary neurons were loaded with 20 µM 2′, 7′-dichlorodihydrofluorescein diacetate (H2DCFDA; Invitrogen) for 45 min, washed and oxidative stress was induced by B27-withdrawal for 24 h, in the presence or absence of L- or D-carnosine. The fluorescence of oxidized DCF was read after 24 h at Ex485 nm/Em530 nm using the Pherastar FS platereader.

A short description of series [7]: Serum pharmacokinetics after single intravenous injection (LC-MS/MS). The format is in vivo. As to conditions: mice, 1000 mg/kg IV; for serum levels (molar): converted from μg/mL; for half-life: naive pooled noncompartmental analysis. On the procedure:
Mice were randomly divided into the treatment groups (n = 4~5 mice/group for each time point) and given a single intravenous injection of saline or L-carnosine (1000 mg/kg) or D-carnosine (1000 mg/kg) through the tail vein. Anesthesia was induced by isoflurane inhalation and maintained during intravenous injection. Blood samples were collected by cardiac puncture at 0, 5, 15, 30, 60, 180 and 360 min postadministration of carnosine. Blood was incubated at room temperature for 30 min to allow clotting to occur, followed by centrifugation at 12,000 g to isolate serum. Remaining blood was removed from the body through perfusion with phosphate-buffered saline, and the brain was carefully isolated. Aliquots of brain tissue (300 mg) and serum (150 μL) were stored at −70 °C and used for analysis.
Carnosine levels in serum or brain were determined using liquid chromatography tandem-mass spectrometry (LC-MS/MS) as previously described with a slight modification. H-Tyr-His-OH (Bachem AG, Köln, Germany) was used as internal standard (IS). The entire procedure for sample and standard preparation was carried out on ice. Serum (150 μL) or homogenized brain tissue (300 mg) were deproteinized using an ultrasonicator (VCX 500, Sonics & Materials Inc., Newtown, CT, USA) with 1 mL of 1 M TCA and 50 μL of 3 M TCA, respectively. After spiking the IS (10 μg for brain and 200 ng for serum), each homogenate was centrifuged at 9000 g for 15 min at 4 °C. The supernatant was used for the assay of carnosine concentrations. Calibration curves were obtained by spiking known concentrations of L- or D-carnosine (Sigma-Aldrich, St. Louis, MO, USA) into homogenates of brain or serum obtained from untreated mice, and samples were processed as described above.
Chromatographic separation and quantitation were performed using an LC-MS/MS system composed of HPLC (Ultimate 3000, Dionex, Rome, Italy) coupled with electrospray ionization (ESI) and triple quadrupole-ion trap mass spectrometry (3200 Qtrap, AB Sciex, Ontario, Canada). Synergi C18-L (Phenomenex 150 × 4.6 mm, 4 μm particle size) column was used with a 0.8 mL/min flow rate of mobile phase. Isocratic elution of 75/25 (5 mM heptafluorobutyric acid/acetonitrile) was used for brain samples and gradient elution (95/5 to 80/20 for 6 min and holding for 4 min) was used for serum samples. The injection volume was 5 μL. For ESI source, ion spray voltage was 4.5 kV and capillary temperature was set at 650 °C which provided optimum ionization of each analyte. A multiple reaction monitoring (MRM) in positive mode was used to detect carnosine (m/z 227 > 110 as quant ion, 156 and 83 as qualifier), histidine (m/z 156 > 110 as quant ion, 83 and 82 as qualifier) and IS (m/z 319 > 110 as quant ion, 156 and 91 as qualifier). Pharmacokinetic parameters were calculated by noncompartmental analysis using a sparse sampling and naïve pooled approach (WinNonLin (Phoenix 64 Build 8.0.0.3176), Certara, Mountain View, CA, USA).

In series [8] the test system is transient focal cerebral ischemia (MCAO). In words: Transient focal cerebral ischemia (60 min t-MCAO), infarct volume by TTC staining. The format is in vivo, mice. As to conditions: for infarct volume reduction in comparison to saline: 48 h post-t-MCAO; for infarct volume reduction: 1000 mg/kg intravenously 2 h post-t-MCAO, 48 h post-MCAO. On the procedure: Mice were anesthetized by inhalation of 5% isoflurane (in 100% Oxygen) and maintained at 1.5% isoflurane throughout the surgical procedure. Body temperature was monitored throughout surgery using a rectal probe and maintained at 37 + 0.5 °C using a heating pad (World Precision Instruments, Hitchin, Hertfordshire, UK). Laser Doppler flowmetry (Moor Instruments, Sussex, UK) was used to monitor cerebral blood flow. Focal cerebral ischemia was induced by middle cerebral artery occlusion (MCAO) by insertion of an intraluminal monofilament. […] A midline incision was made on the ventral side of the neck and the left common carotid artery (CCA) was isolated and ligated. Another ligature was tied on the left external carotid artery (ECA) and a loose knot was tied onto the internal carotid artery (ICA) as well as CCA just below the bifurcation. A very fine incision was made on the lower end of CCA and the monofilament (Doccol Corporation, Sharon, MA, USA) was advanced approximately 9 mm distal to the bifurcation into the ICA until it reached the distal end of middle cerebral artery (MCA). Relative cerebral blood flow was monitored for initial 10 min postfilament insertion to confirm at least 70% reduction of […] values. The animals were kept under anesthesia for the ischemic period of 60 min, after which the filament was withdrawn and reperfusion (confirmed using LD) was allowed to take place. The knots were untied and the animals were allowed to recover at 37 °C for 1 h before they were transferred to their normal cages. In the first set of experiments, 60 min transient MCAO (t-MCAO) was induced in mice weighing 20-25 g. At the onset of reperfusion, saline or different doses of drugs (L- and D-carnosine; 100, 500 or 1000 mg/kg) were delivered intraperitoneally (IP). Postrecovery, the animals were allowed to recover, placed back in their normal environment for 48 h and then euthanized. (IP administration was used as it was technically difficult to do IV injections at reperfusion). In a second set of experiments, drugs and saline were administered intravenously 2 h post-t-MCAO at 1000 mg/kg. Forty-eight hours post-t-MCAO, mice were deeply anaesthetized with 5% isoflurane, brains were removed and coronal slices with a thickness of 1 mm were prepared. Brain slices were immersed in 2% TTC (Sigma Aldrich) solution and incubated at 37 °C for 20 min. The area of infarction was traced and measured using image J analysis software. The infarct area was also corrected for edema: (1-(total ipsilateral hemisphere-infarct region)/total contralateral hemisphere) × 100. Total infarct volume was calculated as the sum of all infarct areas multiplied by each section thickness.

The subject of series [9] is primary mouse neurons. In words: NMDA excitotoxicity assay, cell viability by MTT. Type of series: cell-based. The note with it: 24 h pretreatment, 24 h after NMDA. As for the experimental part:
Primary cortical neurons were prepared from embryonic day 16 C57bl/6J mouse pups or embryonic day 18 Wistar rat pups. Briefly, cerebral cortices were physically and chemically dissociated with 0.25% trypsin-EDTA (Gibco, Waltham, MA, USA) in dissociation medium (HBSS) at 37 °C for 15 min followed by trituration. The dissociated cells were checked under a microscope for single cells and plated out on poly-L-lysine (Sigma-Aldrich) -coated, 24-well plates (187,500 cells/well) for the excitotoxicity assays, and 96-well plates (47,000 cells/well) for the oxidative stress assays. […]
Neurons were pretreated with L- or D-carnosine for 24 h prior to NMDA stimulation (30 µM) for 30 min. […] Cytotoxicity was measured after 24 h using the Pierce cytotoxicity lactate dehydrogenase (LDH) assay kit. Cell viability was measured by 3-[4–Dimethylthiazol-2-yl]-2,5-diphenyltetrazolium bromide (MTT) assay, which reflects cell metabolism. After NMDA removal, the cells were evaluated for cell viability after 24 h with the addition of fresh media containing each drug. […] Insoluble formazan was dissolved by the addition of 100 μL of DMSO and the absorbance (570 nm) was measured using a multimode plate reader (EnSpire, PerkinElmer, Waltham, MA, USA).

On the set-up of series [10]: method as in PMID 23850642. As to conditions: rats, 15 min after intravenous injection of 2000 mg/kg; cited from earlier work.
Where [11] appears, read: 100 mg/kg IP at onset of reperfusion.
Setting [12] is: 500 mg/kg IP at onset of reperfusion.
[13] abbreviates: 1000 mg/kg IP at onset of reperfusion.

`NCCC(=O)N[C@H](Cc1cnc[nH]1)C(=O)O` [D-carnosine]: the “stability in human plasma” value in series [1] was “stable in human plasma”. For the same compound, in series [2], the “ability to cross the blood brain barrier” value is recorded as “able to cross the blood brain barrier”. The safety and tolerability entry in [3] was “safe and well tolerated”. Moreover, the “reduction of cell death (LDH assay)” value in series [4] (10 µM) is on record as 21.9%; in series [4] (100 µM), 26.4%; in [4] (200 µM), 22.8%; in series [5] (10 µM) it was 13.1%; in series [5] (100 µM), 13.3%; in series [5] (200 µM), 15%. In addition, the “attenuation of ROS accumulation” value in [6] (200 µM) amounted to 14.5%. Moreover, the “serum levels (molar)” value in series [7] (5 min after injection) is 25700 µM. Besides, in series [7] (serum), the AUC turned out to be 108112 µg·min/mL. Also, the CL in series [7] (serum) is 9.23 mL/min/kg. For the same compound, in series [7] (serum), the Vss amounted to 0.12 L/kg. Further, the “Cmax (5 min)” value in series [7] (serum, 5 min after injection) was determined as 5818 µg/mL. Moreover, the half-life in series [7] (serum) came to 1.25 h. Besides, the entries for the “infarct volume reduction in comparison to saline” value in series [8] (setting [11]), in series [8] (setting [12]) and in series [8] (setting [13]) were 23.6%, 27.8% and 57.2%, respectively. The same compound returned an infarct volume reduction in [8] of 52.1%. In addition, the “protection against decrease of cell viability by NMDA (MTT)” value in series [9] is recorded as “significant protection”.
Consider `NCCC(=O)N[C@@H](Cc1cnc[nH]1)C(=O)O` [L-carnosine, β-alanyl-L-histidine], for which, in series [10], the “serum levels of carnosine” value is recorded as 15~20 mmol/L. For the same compound, in series [3], the safety and tolerability result was “safe and well tolerated”. Besides, the “reduction of cell death (LDH assay)” value is 18.5% in series [4] (200 µM), “did not show neuroprotection” in series [5] (10 µM), “did not show neuroprotection” in [5] (100 µM) and 12.2% in [5] (200 µM). For the same compound, the “attenuation of ROS accumulation” value is recorded as 18.6% in series [6] (100 µM) and 19.3% in series [6] (200 µM). The “serum levels (molar)” value in series [7] (5 min after injection) came out at 17700 µM. The clearance in series [7] (mouse, serum) amounted to 11.1 mL/min/kg. Besides, the Cmax in [7] (mouse, serum, 5 min after injection) was 4010 µg/mL. The half-life in series [7] (mouse, serum, read-out: Half-Life) was 1.3 h. In [7] (mouse, serum, read-out: AUC (converted)), the AUC was 89800 µg·min/mL. Moreover, the Vd in series [7] (mouse, serum, read-out: Vss) was found to be 0.223 L/kg. Also, the entries for the “infarct volume reduction in comparison to saline” value in [8] (setting [11]), in series [8] (setting [12]) and in series [8] (setting [13]) were 33.4%, 30.94% and 47.4%, respectively. Moreover, the infarct volume reduction in series [8] was found to be 53.8%. For the same compound, the “protection against decrease of cell viability by NMDA (MTT)” value in series [9] is “significant protection”.

Broadly, the AUC is concentration integrated over time. What is called Vss is a proportionality between amount in the body and measured concentration, not a real space. The term half-life denotes the time in which the quantity being followed falls by half. What is called clearance is the volume of plasma or blood freed of the substance per unit of time. The term Cmax denotes the peak of the concentration-time curve.
